Patent publication US10076533B2, “Acyclic nucleoside phosphonate diesters” (The Regents of the University of California, priority 2013, dated 2018)
Where two headings read alike, the source gives them in different places.

How the values were obtained:
[1] = test system: AD169 strain of human cytomegalovirus; experiment: Antiviral effect in HFF cells infected with human cytomegalovirus (AD169); conditions: HFF cells infected with human cytomegalovirus (AD169), 14 days, crystal violet
[2] = test system: human foreskin fibroblast (HFF) cells; conditions: uninfected HFF cells, […]
HEK 293 cells = experiment: Toxicity in HEK 293 cells by trypan blue exclusion (HPV-11 example); type: cell-based
Protocol: (§1) An origin-containing plasmid was co-transfected with HPV-11 E1 and E2 protein expression vectors into HEK 293 cells. At 4 hr post-transfection, cells were treated with compound dilutions and the cells were incubated for 48 hr. Replication of the virus origin was detected with DpnI and exonuclease III to remove unreplicated input bacterial plasmid DNA. Remaining replicated DNA was quantified by qPCR. Toxicity was determined by trypan blue exclusion.

[3] = test system: human foreskin fibroblast (HFF) cells; experiment: Cytotoxicity in HFF cells in parallel to HSV-1 assay; conditions: HFF cells, in parallel to HSV-1 assay
[4] = test system: Human peripheral blood monocyte (PBMC)
[5] = test system: human foreskin fibroblast (HFF) cells; experiment: Cytotoxicity in HFF cells in parallel to HSV-2 assay; conditions: HFF cells
MT-2 cells = experiment: Cytotoxicity in MT-2 cells, flow cytometry cell counts and viability; type: cell-based, human; conditions: MT-2 cells, 72 hrs; read-out: CC50
Protocol: MT-2 cells were incubated with drug for 72 hrs and harvested. Flow count beads (Beckman Coulter, Miami, Fla.) were added to the cell suspension followed by propidium iodide staining and analysis using flow cytometer and the 50% cytotoxic concentration (CC50) was calculated from the cell counts and viability.

[6] = test system: BK virus (Gardner strain); experiment: Antiviral effect in HFF cells infected with BK virus (Gardner strain), qPCR; conditions: HFF cells infected with BK virus (Gardner strain), 14 days, qPCR
[7] = test system: human foreskin fibroblast (HFF) cells; experiment: Cytotoxicity in HFF cells in parallel to cytomegalovirus assay; conditions: HFF cells, in parallel to cytomegalovirus assay
[8] = test system: human foreskin fibroblast (HFF) cells
MAD-1 strain of JC virus = experiment: Antiviral effect in JC virus (MAD-1) infected COS7 cells, qPCR; conditions: COS7 cells infected with JC virus (MAD-1), 7 days, qPCR
HPV-11 = HPV-11 origin replication in HEK 293 cells, qPCR; type: cell-based; conditions: HPV-11 origin replication in HEK 293 cells, 48 hr, qPCR
Protocol: as §1

[9] = test system: Copenhagen strain of vaccinia virus; experiment: microbe, parasite or virus in culture; type: cell-based; conditions: HFF cells infected with vaccinia virus (Copenhagen), 7 days, crystal violet; read-out: EC50
HIV-192US727 = experiment: Anti-HIV assay in human PBMC, supernatant reverse transcriptase activity
HIV-1LAI = experiment: HIV antiviral assay in MT-2 cells, p24 reduction
COS7 cells = conditions: uninfected COS7 cells, […]
[10] = test system: Human peripheral blood monocyte (PBMC); experiment: Viability of PBMC by XTT reduction; conditions: human PBMC, XTT reduction
Hepatitis B virus = experiment: HBV replication in 2.2.15 cells, HBV DNA blot hybridization; conditions: HBV replication in 2.2.15 cells, 7 days treatment, HBV DNA blot hybridization
2.2.15 cells = experiment: Cytotoxicity in 2.2.15 cells by neutral red uptake; conditions: 2.2.15 cells, neutral red uptake

## CCCCCCCCCCCCCCCCCCOC[C@H](COP(=O)(CO[C@H](CO)Cn1cnc2c(N)ncnc21)OCc1ccccc1)OCc1ccccc1 (stereo partly drawn) [Compound 230, benzyl 1-O-octadecyl-2-O-benzyl-sn-glyceryl 9-(S)-[(3-hydroxypropyl-2-phosphonomethoxy)propyl]adenine]
[1]
  EC50: < 0.03 µM
[2]
  CC50: 19.6 µM
HEK 293 cells
  CC50: > 10 µM
[3]
  CC50: 82.2 µM
[4]
  CC50: 0.55 µM
[5]
  CC50: 37.1 µM
MT-2 cells
  CC50: 19 ± 2.6 µM
[6]
  EC50: 0.06 µM
[7]
  CC50: 3.72 µM
[8]
  CC50: 97.5 µM
MAD-1 strain of JC virus
  EC50: > 4 µM
HPV-11
  EC50: 0.56 µM
[9]
  EC50: 0.06 µM
HIV-192US727
  EC50: < 0.1 µM
HIV-1LAI; CC50/EC50, MT-2 cells
  Selectivity Index: 380
HIV-1LAI; HIV-1 infected MT-2 cells, p24 reduction, four days
  EC50: 0.05 ± 0.03 µM
COS7 cells
  CC50: 18.4 µM

## CCCCCCCCCCCCCCCCCCOCCOP(=O)(CO[C@H](C)Cn1cnc2c(N)ncnc21)Oc1ccccc1 (stereo partly drawn) [Compound 92, phenyl octadecyloxyethyl 9-(R)-[(2-phosphonomethoxy)propyl]adenine]
[10]
  CC50: 24.1 µM
Hepatitis B virus
  EC50: 7.3 µM
HIV-192US727; HIV-192US727 infected human PBMC, 7 days, supernatant reverse transcriptase activity
  EC50: < 0.005 µM
2.2.15 cells
  CC50: 68 µM
